According to ChEMBL document CHEMBL1201862, “PubChem BioAssay data set” (2004):
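Method: 48-hour compound exposure of cells in 96-well plates, five concentrations, linear interpolation of endpoints. Here, GI50 denotes the concentration required for 50% inhibition of growth.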 The source made the active and inactive calls. Cut-off read from the data, not from the text of the source: active = GI50 up to about 1.1 µM and inactive = higher.

Experiments:
Assay in all cases: NCI anticancer screen, dose series, 48 h
IGROV-1 = test system: IGROV-1
MDA-MB-435 = test system: MDA-MB-435
ACHN = test system: ACHN
SK-MEL-2 = test system: SK-MEL-2
SF-295 = test system: SF-295
OVCAR-8 = test system: OVCAR-8
UACC-257 = test system: UACC-257
786-0 = test system: 786-0
MDA-MB-231 = test system: MDA-MB-231
MCF7 = test system: MCF7
HCT-116 = test system: HCT-116
NCI/ADR-RES = test system: NCI/ADR-RES
OVCAR-4 = test system: OVCAR-4
NCI-H226 = test system: NCI-H226
OVCAR-3 = test system: OVCAR-3
Malme-3M = test system: Malme-3M
U-251 = test system: U-251
Hs-578T = test system: Hs-578T
UACC-62 = test system: UACC-62
CAKI-1 = test system: CAKI-1
SNB-75 = test system: SNB-75
LOX IMVI = test system: LOX IMVI
NCI-H522 = test system: NCI-H522
KM12 = test system: KM12
HT-29 = test system: HT-29
OVCAR-5 = test system: OVCAR-5
BT-549 = test system: BT-549
SK-MEL-28 = test system: SK-MEL-28
PC-3 = test system: PC-3
CCRF-CEM = test system: CCRF-CEM
HL-60 = test system: HL-60
UO-31 = test system: UO-31
A498 = test system: A498
NCI-H23 = test system: NCI-H23
TK-10 = test system: TK-10
COLO 205 = test system: COLO 205
M14 = test system: M14
SW-620 = test system: SW-620
K562 = test system: K562
HCC 2998 = test system: HCC 2998
SF-539 = test system: SF-539
SR = test system: SR
NCI-H460 = test system: NCI-H460
DU-145 = test system: DU-145
SN12C = test system: SN12C
HCT-15 = test system: HCT-15
RPMI-8226 = test system: RPMI-8226
T47D = test system: T47D
SK-OV-3 = test system: SK-OV-3
EKVX = test system: EKVX
SF-268 = test system: SF-268
MDA-N = test system: MDA-N
MOLT-4 = test system: MOLT-4
SNB-19 = test system: SNB-19
HOP-62 = test system: HOP-62
A549 = test system: A549
RXF 393 = test system: RXF 393
SK-MEL-5 = test system: SK-MEL-5
HOP-92 = test system: HOP-92

For `CCOC(=O)C1(Cc2ccccc2)Cc2cc3c(cc2C1)CCC3`, the GI50 (IGROV-1) was 39 µM (inactive), the GI50 (MDA-MB-435) was 30.2 µM (inactive) and the GI50 (ACHN) was 38.7 µM (inactive). For the same molecule, the GI50 (SK-MEL-2) was 12.8 µM (inactive), the GI50 (SF-295) was 29.4 µM (inactive) and the GI50 (OVCAR-8) was 47.3 µM (inactive). For the same molecule, the GI50 (UACC-257) was 40.7 µM (inactive), the GI50 (786-0) was 38.1 µM (inactive) and the GI50 (MDA-MB-231) was 30.4 µM (inactive). For the same molecule, the GI50 (MCF7) was 23 µM (inactive), the GI50 (HCT-116) was 24.3 µM (inactive) and the GI50 (NCI/ADR-RES) was 48.1 µM (inactive). For the same molecule, the GI50 (OVCAR-4) was 35.7 µM (inactive), the GI50 (NCI-H226) was 25.2 µM (inactive) and the GI50 (OVCAR-3) was 41.1 µM (inactive). For the same molecule, the GI50 (Malme-3M) was 29.6 µM (inactive), the GI50 (U-251) was 30.8 µM (inactive) and the GI50 (Hs-578T) was 22.3 µM (inactive). The GI50 (UACC-62) was 30.1 µM (inactive), the GI50 (CAKI-1) was 39.5 µM (inactive) and the GI50 (SNB-75) was > 10 µM (inactive). The GI50 (LOX IMVI) was 18.8 µM (inactive), the GI50 (NCI-H522) was 30.3 µM (inactive) and the GI50 (KM12) was 31.9 µM (inactive). The GI50 (HT-29) was 18.4 µM (inactive), the GI50 (OVCAR-5) was 25.2 µM (inactive) and the GI50 (BT-549) was 25.2 µM (inactive). For the same molecule, the GI50 (SK-MEL-28) was 38.8 µM (inactive), the GI50 (PC-3) was 25.7 µM (inactive) and the GI50 (CCRF-CEM) was 16.5 µM (inactive). The GI50 (HL-60) was 23.8 µM (inactive), the GI50 (UO-31) was 40.9 µM (inactive) and the GI50 (A498) was 49.4 µM (inactive). For the same molecule, the GI50 (NCI-H23) was 27 µM (inactive), the GI50 (TK-10) was 92.7 µM (inactive) and the GI50 (COLO 205) was 19.3 µM (inactive). For the same molecule, the GI50 (M14) was 29.5 µM (inactive), the GI50 (SW-620) was 28.6 µM (inactive) and the GI50 (K562) was 22.5 µM (inactive). For the same molecule, the GI50 (HCC 2998) was 21.4 µM (inactive), the GI50 (SF-539) was 39 µM (inactive) and the GI50 (SR) was 23.9 µM (inactive). The GI50 (NCI-H460) was 31.3 µM (inactive), the GI50 (DU-145) was 44.6 µM (inactive) and the GI50 (SN12C) was 33.3 µM (inactive). For the same molecule, the GI50 (HCT-15) was 27.7 µM, the GI50 (RPMI-8226) was 20.6 µM (inactive) and the GI50 (T47D) was 26.7 µM (inactive). The GI50 (SK-OV-3) was 35 µM (inactive), the GI50 (EKVX) was 42.8 µM (inactive) and the GI50 (SF-268) was 52.4 µM (inactive). The GI50 (MDA-N) was 31.1 µM (inactive), the GI50 (MOLT-4) was 17.5 µM (inactive) and the GI50 (SNB-19) was 55.8 µM (inactive). The GI50 (HOP-62) was 37.2 µM (inactive) and the GI50 (A549) was 36.8 µM (inactive).

For `CC1(c2nc3ccccc3[nH]2)CCC(CO)C(C)(C)O1` (configuration not stated), the GI50 (IGROV-1) was > 100 µM (inactive), the GI50 (MDA-MB-435) was > 100 µM (inactive) and the GI50 (ACHN) was > 100 µM (inactive). For the same molecule, the GI50 (SK-MEL-2) was > 100 µM (inactive), the GI50 (SF-295) was > 100 µM (inactive) and the GI50 (OVCAR-8) was > 100 µM (inactive). The GI50 (UACC-257) was > 100 µM (inactive), the GI50 (RXF 393) was > 100 µM (inactive) and the GI50 (786-0) was > 100 µM (inactive). The GI50 (MDA-MB-231) was > 100 µM (inactive), the GI50 (MCF7) was > 100 µM (inactive) and the GI50 (HCT-116) was > 100 µM (inactive). For the same molecule, the GI50 (NCI/ADR-RES) was > 100 µM (inactive), the GI50 (OVCAR-4) was > 100 µM (inactive) and the GI50 (NCI-H226) was > 100 µM (inactive). For the same molecule, the GI50 (OVCAR-3) was > 100 µM (inactive), the GI50 (Malme-3M) was > 100 µM (inactive) and the GI50 (SK-MEL-5) was > 100 µM (inactive). The GI50 (U-251) was > 100 µM (inactive), the GI50 (Hs-578T) was > 100 µM (inactive) and the GI50 (UACC-62) was > 100 µM (inactive). For the same molecule, the GI50 (HOP-92) was > 100 µM (inactive), the GI50 (CAKI-1) was > 100 µM (inactive) and the GI50 (SNB-75) was > 100 µM (inactive). For the same molecule, the GI50 (LOX IMVI) was > 100 µM (inactive), the GI50 (NCI-H522) was > 100 µM (inactive) and the GI50 (KM12) was > 100 µM (inactive). The GI50 (HT-29) was > 100 µM (inactive), the GI50 (OVCAR-5) was > 100 µM (inactive) and the GI50 (BT-549) was > 100 µM (inactive). The GI50 (SK-MEL-28) was > 100 µM (inactive), the GI50 (PC-3) was > 100 µM (inactive) and the GI50 (CCRF-CEM) was > 100 µM (inactive). The GI50 (HL-60) was > 100 µM (inactive), the GI50 (UO-31) was 98.6 µM (inactive) and the GI50 (NCI-H23) was > 100 µM (inactive). The GI50 (TK-10) was > 100 µM (inactive), the GI50 (COLO 205) was > 100 µM (inactive) and the GI50 (M14) was > 100 µM (inactive). For the same molecule, the GI50 (SW-620) was > 100 µM (inactive), the GI50 (K562) was > 100 µM (inactive) and the GI50 (HCC 2998) was > 100 µM (inactive). The GI50 (SF-539) was > 100 µM (inactive), the GI50 (SR) was 16.1 µM (inactive) and the GI50 (DU-145) was > 100 µM (inactive). The GI50 (SN12C) was > 100 µM (inactive), the GI50 (HCT-15) was > 100 µM and the GI50 (RPMI-8226) was > 100 µM (inactive). For the same molecule, the GI50 (T47D) was > 100 µM (inactive), the GI50 (SK-OV-3) was > 100 µM (inactive) and the GI50 (EKVX) was > 100 µM (inactive). The GI50 (SF-268) was > 100 µM (inactive), the GI50 (MDA-N) was > 100 µM (inactive) and the GI50 (MOLT-4) was > 100 µM (inactive). For the same molecule, the GI50 (SNB-19) was > 100 µM (inactive), the GI50 (HOP-62) was > 100 µM (inactive) and the GI50 (A549) was > 100 µM (inactive).

In the case of `CCNC1=C(NC(=O)c2ccc(OC)cc2)C(=O)c2ccccc2C1=O`, the GI50 (IGROV-1) is reported as 72.1 µM (inactive), the GI50 (MDA-MB-435) is reported as 16.8 µM (inactive) and the GI50 (ACHN) is reported as 88.3 µM (inactive). The GI50 (SF-295) was > 100 µM (inactive), the GI50 (OVCAR-8) was 24.6 µM (inactive) and the GI50 (UACC-257) was 19.4 µM (inactive). The GI50 (RXF 393) was 28.5 µM (inactive), the GI50 (786-0) was > 100 µM (inactive) and the GI50 (MDA-MB-231) was 92.9 µM (inactive). The GI50 (MCF7) was 51.8 µM (inactive), the GI50 (HCT-116) was 36.3 µM (inactive) and the GI50 (NCI/ADR-RES) was 29 µM (inactive). For the same molecule, the GI50 (OVCAR-4) was 34.7 µM (inactive), the GI50 (NCI-H226) was > 100 µM (inactive) and the GI50 (OVCAR-3) was 24 µM (inactive). The GI50 (Malme-3M) was 21.3 µM (inactive), the GI50 (SK-MEL-5) was 34.7 µM (inactive) and the GI50 (U-251) was > 100 µM (inactive). The GI50 (Hs-578T) was > 100 µM (inactive), the GI50 (UACC-62) was 39.4 µM (inactive) and the GI50 (HOP-92) was > 100 µM (inactive). For the same molecule, the GI50 (SNB-75) was > 100 µM (inactive), the GI50 (NCI-H522) was 30.7 µM (inactive) and the GI50 (KM12) was 49.9 µM (inactive). The GI50 (HT-29) was 23.4 µM (inactive), the GI50 (OVCAR-5) was > 100 µM (inactive) and the GI50 (BT-549) was 63.1 µM (inactive). The GI50 (SK-MEL-28) was > 100 µM (inactive), the GI50 (PC-3) was 32.8 µM (inactive) and the GI50 (CCRF-CEM) was 48.3 µM (inactive). For the same molecule, the GI50 (HL-60) was 51.6 µM (inactive), the GI50 (NCI-H23) was 43.6 µM (inactive) and the GI50 (TK-10) was > 100 µM (inactive). The GI50 (COLO 205) was 37 µM (inactive), the GI50 (M14) was 21.6 µM (inactive) and the GI50 (SW-620) was 44 µM (inactive). For the same molecule, the GI50 (K562) was > 100 µM (inactive), the GI50 (HCC 2998) was 37.5 µM (inactive) and the GI50 (SF-539) was 56.8 µM (inactive). The GI50 (SR) was 56.5 µM (inactive), the GI50 (NCI-H460) was 56.5 µM (inactive) and the GI50 (DU-145) was > 100 µM (inactive). The GI50 (SN12C) was 43.6 µM (inactive), the GI50 (HCT-15) was 48.4 µM and the GI50 (RPMI-8226) was > 100 µM (inactive). For the same molecule, the GI50 (T47D) was 66.1 µM (inactive), the GI50 (SK-OV-3) was > 100 µM (inactive) and the GI50 (EKVX) was > 100 µM (inactive). The GI50 (SF-268) was > 100 µM (inactive), the GI50 (MDA-N) was 37.2 µM (inactive) and the GI50 (MOLT-4) was 36.1 µM (inactive). The GI50 (SNB-19) was > 100 µM (inactive), the GI50 (HOP-62) was > 100 µM (inactive) and the GI50 (A549) was 70.3 µM (inactive).
